“Also recorded” adds a separate entry of the source.
Assays:
HGADFN003 cells [1] = experiment: CyclinA2 immunofluorescence of HGADFN003 cells; type: cell-based, human
Experimental: (§1) Immunofluorescence was performed as described previously. Cells were plated on cover slips in 12-well plates, left overnight before the treatment. Cells were fixed in 1% formaldehyde in culture medium for 10 min at 37 °C and permeabilized with 0.2% Triton X-100 in PBS for 10 min at room temperature. Cells were washed twice in PBS and blocked for 1 h with 5% BSA in PBS and then incubated with primary antibodies at 4 °C overnight, washed three times in PBS and incubated with secondary antibodies for 1 h at room temperature. Cell nuclei were counterstained with a 500 nM concentration of 4,6-diamidino-2-phenylindole (DAPI) (Sigma). Images were acquired by a fluorescence microscope (OLYMPUS FV-1000, Carl Zeiss LSM880 or Leica DMi8) and analyzed with software NIS-Elements AR v.5.0.1 (Nikon), FLUOVIEW v.4.2b (OLYMPUS), ZEN v.2.3 SP1 (Carl Zeiss) and Leica Application Suite X v.3.6.0.24 (Leica). Cells were quantified by investigators who were blinded to the identity of the analyzed cell.

IMR90 cells = experiment: CCK8 cell viability of IMR90 cells; type: cell-based, human; settings: CCK8, UPCP 0, 10, 20, 30 μM, 0–72 h (also Ki67, CyclinA2, survival rate)
Experimental: Cell viability was assessed using the Cell Counting Kit-8 (CCK8) (APE, catalog no. k1018). The cells were plated in triplicate in 96-well plates (typically 10,000 cells per 100 μl per well) and were incubated with fresh medium for 24 h. Then, the cells were incubated with different concentrations (0 μM, 10 μM, 20 μM, 30 μM) of UPCP for 0 h, 24 h, 48 h or 72 h. CCK8 solution (10 μl) was added to the well for a 2 h incubation at 37 °C. Absorbance was measured at 450 nm with a 96-well plate reader (Tecan Infinite M NANO^+). Data were analyzed and further processed in i-control v.2.0 and GraphPad Prism v.7.

HGADFN003 cells [2] = experiment: Effect of UPCP on HGADFN003 senescence after BUBR1 depletion (shBUBR1#3): SA-β-gal, Ki67, aneuploid cells; type: cell-based, human; settings: for Relative percentage of SA-β-gal positive cells: Fig. 5g; for Relative percentage of SA-β-gal positive cells / Relative percentage of Ki67 positive cells / Relative percentage of aneuploid cells: HGADFN003; for Relative percentage of Ki67 positive cells: Fig. 5i; for Relative percentage of aneuploid cells: Fig. 5j
Experimental: as §1
SA-β-gal staining was performed as previously described. Cells were fixed in 0.5% glutaraldehyde for 15 min at room temperature, washed three times with PBS (pH 6.0) containing 1 mM MgCl2 and exposed overnight 37 °C to containing 1 mg ml^–1 5-bromo-4-chloro-3-indolyl-β-D-galactopyranoside (MCE, catalog no. HY-15934), 0.12 mM potassium ferrocyanide (Sigma, catalog no. P3289), 0.12 mM potassium ferricyanide (Sigma, catalog no. P8131) and 1 mM MgCl2 PBS buffer (pH 6.0). Cells were washed three times with H2O and observed under a microscope (OLYMPUS CKX53). SA-β-gal positive cells were quantified by investigators who were blinded to the identity of the analyzed cell.
For the metaphase chromosome spread assay, 1.5 × 10^6 cells were seeded in a 6 cm dish and incubated for 24 h with fresh medium. Then, colchicine was added to a final concentration of 0.2 μg ml^–1 and the cells were incubated at 37 °C for 2 h. After digestion, we collected and rinsed the cells with PBS. The cells were centrifuged at 160g for 10 min. Then, 1 M KCl was added to a final concentration of 0.075 mol l^–1 and the samples were incubated at 37 °C for 20 min. The cells were centrifuged, and the supernatant aspirated. The pellet was resuspended, and 1 ml methanol:glacial acetic acid (3:1) solution was added. The sample was rested at room temperature for 10 min. Then, the cells were centrifuged at 160g for 10 min. The supernatant was aspirated, and the pellet resuspended in 1 ml fixative for 30 min. The cells were centrifuged and the pellet was suspended in 1 ml fixative again for 30 min. The cells were centrifuged at 160g for 10 min and the supernatant aspirated. The pellet was then resuspended in a small volume of fixative (typically less than 500 μl) until the cell suspension appeared lightly milky. A small quantity of the cell suspension was held vertically in a pipette with the end about 10 cm above the slide. A single drop was released from this height onto the slide and allowed to air dry. The cells were then incubated with 500 nM of DAPI (Invitrogen) for 10 min. Slides were examined with an Olympus BX53 fluorescence microscope and the images were captured by using the Olympus IPP v.7.0 software. Aneuploid cells were quantified by investigators who were blinded to the identity of the analyzed cell.

BUBR1 promoter = experiment: Luciferase assay of BUBR1 promoter in HEK-293T cells; type: cell-based; settings: for Relative luciferase activity of BUBR1 promoter (UPCP/Mock): Fig. 4b, HEK293T, Mock = 1, P=0.684
Experimental: The experiments were performed as described previously. The BUBR1 (–1,200 to +100) promoter or the DNA fragment of BUBR1 mRNA 3′-UTR was inserted into the pGL4.20 vector. Cells were plated in 24-well plates. After 24 h, cells were cotransfected with 200 ng of the indicated firefly luciferase reporter plasmid and 50 ng of Renilla luciferase normalization control plasmid using PEI. At 48 h after transfection, cell lysates were collected to measure luciferase activity using the Dual-Luciferase Reporter Assay System (Promega, catalog no. E1910) according to the manufacturer’s instructions. Luciferase reporter assay was carried out on an TD-20/20 Turner Designs luminometer, data were analyzed and further processed in Microsoft Excel and GraphPad Prism v.7.

IMR90-progerin cells = experiment: γH2AX foci in IMR90-progerin cells; type: cell-based, human; settings: for γH2AX foci per cell, n>10 / γH2AX foci per cell, n≤10: IMR90-Flag-progerin+UPCP
Experimental: as §1

Substance: H-YGRKKRRQRRRYNLRSRTVLCGTCGQPADKASASGSGAQSPQNCSIM-OH (cysteines drawn unpaired) [UPCP, unique progerin C-terminal peptide]
- CyclinA2 positive cells (HGADFN003 cells [1]; HGADFN003, 2h, replicate 1): 25%
- CyclinA2 positive cells (HGADFN003 cells [1]; HGADFN003, 2h, replicate 2): 35.7143%
- CyclinA2 positive cells (HGADFN003 cells [1]; HGADFN003, 2h, replicate 3): 33.3333%
- CyclinA2 positive cells (HGADFN003 cells [1]; HGADFN003, 4h, replicate 1): 42.8571%
- CyclinA2 positive cells (HGADFN003 cells [1]; HGADFN003, 4h, replicate 2): 43.4783%
- CyclinA2 positive cells (HGADFN003 cells [1]; HGADFN003, 4h, replicate 3): 31.8182%
- CyclinA2 positive cells (HGADFN003 cells [1]; HGADFN003, 6h, replicate 1): 35.2941%
- CyclinA2 positive cells (HGADFN003 cells [1]; HGADFN003, 6h, replicate 2): 33.3333%
- CyclinA2 positive cells (HGADFN003 cells [1]; HGADFN003, 6h, replicate 3): 45.8333%
- CyclinA2 positive cells (HGADFN003 cells [1]; HGADFN003, 24h, replicate 1): 42.3077%
- CyclinA2 positive cells (HGADFN003 cells [1]; HGADFN003, 24h, replicate 2): 41.1765%
- CyclinA2 positive cells (HGADFN003 cells [1]; HGADFN003, 24h, replicate 3): 48.5714%
- CyclinA2 positive cells (HGADFN003 cells [1]; HGADFN003, 48h, replicate 1): 59.0909%
- CyclinA2 positive cells (HGADFN003 cells [1]; HGADFN003, 48h, replicate 2): 58.3333%
- CyclinA2 positive cells (HGADFN003 cells [1]; HGADFN003, 48h, replicate 3): 56.7568%
- level of CyclinA2 (HGADFN003 cells [1]; HGPS cells): increased level of CyclinA2
- effect on proliferation of normal cells (IMR90 cells): had little effect on proliferation of IMR90 cells; also recorded: no obvious effect on the proliferation of normal cells
- Relative percentage of SA-β-gal positive cells (HGADFN003 cells [2]; UPCP+shBUBR1#3, P=0.0068 vs Mock, 0.0058 vs UPCP, replicate 1): 38%
- Relative percentage of SA-β-gal positive cells (HGADFN003 cells [2]; UPCP+shBUBR1#3, P=0.0068 vs Mock, 0.0058 vs UPCP, replicate 2): 35%
- Relative percentage of SA-β-gal positive cells (HGADFN003 cells [2]; UPCP+shBUBR1#3, P=0.0068 vs Mock, 0.0058 vs UPCP, replicate 3): 41%
- Relative percentage of SA-β-gal positive cells (HGADFN003 cells [2]; UPCP, Mock 48, 52, 55, P=0.0005 vs Mock, replicate 1): 25%
- Relative percentage of SA-β-gal positive cells (HGADFN003 cells [2]; UPCP, Mock 48, 52, 55, P=0.0005 vs Mock, replicate 2): 28%
- Relative percentage of SA-β-gal positive cells (HGADFN003 cells [2]; UPCP, Mock 48, 52, 55, P=0.0005 vs Mock, replicate 3): 29%
- Relative percentage of Ki67 positive cells (HGADFN003 cells [2]; UPCP+shBUBR1#3, P=0.0314 vs Mock, 0.0222 vs UPCP, replicate 1): 52%
- Relative percentage of Ki67 positive cells (HGADFN003 cells [2]; UPCP+shBUBR1#3, P=0.0314 vs Mock, 0.0222 vs UPCP, replicate 2): 49%
- Relative percentage of Ki67 positive cells (HGADFN003 cells [2]; UPCP+shBUBR1#3, P=0.0314 vs Mock, 0.0222 vs UPCP, replicate 3): 43%
- Relative percentage of Ki67 positive cells (HGADFN003 cells [2]; UPCP, Mock 35, 41, 37, P=0.0029 vs Mock, replicate 1): 65%
- Relative percentage of Ki67 positive cells (HGADFN003 cells [2]; UPCP, Mock 35, 41, 37, P=0.0029 vs Mock, replicate 2): 58%
- Relative percentage of Ki67 positive cells (HGADFN003 cells [2]; UPCP, Mock 35, 41, 37, P=0.0029 vs Mock, replicate 3): 71%
- Relative percentage of aneuploid cells (HGADFN003 cells [2]; UPCP+shBUBR1#3, P=0.0641 vs Mock, 0.0036 vs UPCP, replicate 1): 25%
- Relative percentage of aneuploid cells (HGADFN003 cells [2]; UPCP+shBUBR1#3, P=0.0641 vs Mock, 0.0036 vs UPCP, replicate 2): 27%
- Relative percentage of aneuploid cells (HGADFN003 cells [2]; UPCP+shBUBR1#3, P=0.0641 vs Mock, 0.0036 vs UPCP, replicate 3): 24%
- Relative percentage of aneuploid cells (HGADFN003 cells [2]; UPCP, Mock 28, 36, 31, P=0.005 vs Mock, replicate 1): 19%
- Relative percentage of aneuploid cells (HGADFN003 cells [2]; UPCP, Mock 28, 36, 31, P=0.005 vs Mock, replicate 2): 16%
- Relative percentage of aneuploid cells (HGADFN003 cells [2]; UPCP, Mock 28, 36, 31, P=0.005 vs Mock, replicate 3): 18%
- senescence remission by UPCP after BUBR1 depletion (HGADFN003 cells [2]; HGADFN003, BUBR1 shRNA (shBUBR1#3)): depletion of BUBR1 significantly antagonized the senescence remission mediated by UPCP
- Relative luciferase activity of BUBR1 promoter (UPCP/Mock) (BUBR1 promoter; replicate 1): 0.9458
- Relative luciferase activity of BUBR1 promoter (UPCP/Mock) (BUBR1 promoter; replicate 2): 1.36
- Relative luciferase activity of BUBR1 promoter (UPCP/Mock) (BUBR1 promoter; replicate 3): 0.8889
- luciferase activity of the BUBR1 promoter (BUBR1 promoter; HEK-293T cells): failed to enhance luciferase activity of the BUBR1 promoter
- γH2AX foci per cell, n>10 (IMR90-progerin cells; replicate 1): 75%
- γH2AX foci per cell, n≤10 (IMR90-progerin cells; replicate 1): 25%
- γH2AX foci per cell, n>10 (IMR90-progerin cells; replicate 2): 69%
- γH2AX foci per cell, n≤10 (IMR90-progerin cells; replicate 2): 31%
- γH2AX foci per cell, n>10 (IMR90-progerin cells; replicate 3): 61%
- γH2AX foci per cell, n≤10 (IMR90-progerin cells; replicate 3): 39%
- γH2AX-53BP1 foci (IMR90-progerin cells; IMR90-progerin cells): lower level of γH2AX-53BP1 foci

From publication PMC10154249, “Unique progerin C-terminal peptide ameliorates Hutchinson–Gilford progeria syndrome phenotype by rescuing BUBR1” (Nature Aging, 2023)
